# Experimental data taken from patent US20040122218A1, “Pyrrolopyridine potassium channel openers” (priority 2002, published 2004).
# What was measured:
# [1] = test system: Landrace pig bladders; assay: In vitro functional model: field-stimulated bladder tissue strips; conditions: concentration range of 10^−9 to 10^−5 M, cumulative
# Protocol: In Vitro Functional Model
# Compounds were evaluated for functional BK channel opening activity using tissue strips obtained from Landrace pig bladders. Landrace pig bladders were obtained from female Landrace pigs of 9-30 kg. Landrace pigs were euthanized with an intraperitoneal injection of pentobarbital solution, Somlethal®, J.A. Webster Inc., Sterling Mass. The entire bladder was removed and immediately placed into Krebs Ringer bicarbonate solution (composition, mM: NaCl, 120; NaHCO3, 20; dextrose, 11; KCl, 4.7; CaCl2, 2.5; MgSO4, 1.5; KH2PO4, 1.2; K2EDTA, 0.01, equilibrated with 5% CO2/95% O2 pH 7.4 at 37° C.). Propranolol (0.004 mM) was included in all of the assays to block β-adrenoceptors. The trigonal and dome portions were discarded. Strips 3-5 mm wide and 20 mm long were prepared from the remaining tissue cut in a circular fashion. The mucosal layer was removed. One end was fixed to a stationary glass rod and the other to a Grass FT03 transducer at a basal preload of 1.0 gram. Two parallel platinum electrodes were included in the stationary glass rod to provide field stimulation of 0.05 Hz, 0.5 milli-seconds at 20 volts. […] The maximal efficacy of each compound (expressed as % relative to P1075) is reported. […] Agonist potencies were also expressed as an index relative to P1075. The index was calculated by dividing the ED50 for P1075 by the ED50 for the test agonist in a given tissue. […]
SMILES,melting point,effect on stimulated twitch [1]
"N#Cc1c(N2CCCCC2)[nH]c2cccnc12 [Example 18, 2-Piperidin-1-yl-1H-pyrrolo[3,2-b]pyridine-3-carbonitrile]",241 to 242 °C,
"N#Cc1c(N2CCC[C@H]2CO)[nH]c2cccnc12 [Example 10, (S)-2-(2-Hydroxymethyl-pyrrolidin-1-yl)-1H-pyrrolo [3,2-b]pyridine-3-carbonitrile]",207 to 209 °C,
CCC(C)(C)N=C(NC#N)Nc1cccnc1 [Example P1075],,completely eliminated the stimulated twitch
"N#Cc1c(N2CCC[C@@H]2CO)[nH]c2cccnc12 [Example 9, (R)-2-(2-Hydroxymethyl-pyrrolidin-1-yl)-1H-pyrrolo [3,2-b]pyridine-3-carbonitrile]",207 to 209 °C,
